Tests used:
PDGFR-α = target: T1, PDGFR-α (Homo sapiens, UniProt P16234); assay: PDGFR-α tyrosine phosphorylation in PAE cells stably expressing PDGFR-α; format: cell-based; details: conditioned medium from transfected COS-1 cells applied to PAE cells, 120 min on ice
T1 construct: expressed in transfected cells
Description: It was verified that the growth factor domain in PDGF-CC released by tPA-mediated proteolysis is an efficient PDGFR-A ligand. Conditioned media from transfected COS-1 cells were applied onto porcine aortic endothelial (PAE) cells with stable expression of PDGFR-α (FIG. 5A).
To understand the structural requirements for receptor-binding and activation of PDGF-CC, the series of truncated mutants of PDGF-CC generated above were analysed for their ability to activate PDGFR-α in PAE cells. Conditioned media containing the truncated mutants of PDGF-CC were applied onto PAE cells, and the activation of the receptors was monitored by induction of receptor tyrosine phosphorylation (FIG. 6D).
To monitor growth factor-induced tyrosine phosphorylation of PDGFR-α, serum-starved PAE cells stably expressing human PDGFR-α were incubated for 120 min on ice with conditioned medium from COS-1 cells transfected with full-length PDGF-C in the absence or presence of tPA. Alternatively, primary wild-type and tPA-deficient fibroblasts were stimulated with 100 ng/ml activated PDGF-CC protein. The cells were lysed as described previously (Li et al, 2000) and PDGFR-α was immunoprecipitated using a specific antiserum (Eriksson et al, 1992). […] Tyrosinephosphorylated receptors were detected by immunoblotting using an antiphosphotyrosine antibody (PY99, Santa Cruz). […]

[1] = system: tPA-deficient fibroblasts; assay: WST-1 growth assay of primary fibroblasts in serum-free medium; format: cell-based, mouse; details: 50 ng/ml added to serum-free culture medium, 24 hours
Description: It was observed that primary fibroblasts derived from tPA-deficient mice grew more slowly in culture than fibroblasts derived from wild-type animals, raising the possibility that activation of latent PDGF-CC by tPA generated autocrine and paracrine growth stimulatory loops for primary fibroblasts in culture. To analyze this effect, isolated wild-type and tPA-deficient fibroblasts were serum-starved overnight, and the growth of the cells during the next 24 hours was monitored using an enzyme-based viability assay (see Example 8, Materials and Methods).
(§1) To monitor cell growth, both the cell proliferation reagent WST-1 (Roche) and BrdU (Sigma) were used. A total of 0.4×10^4 (WST-1) or 1×10^4 (BrdU) wild-type and tPA-deficient fibroblasts were seeded in triplicate-hexaplicate, and after attachment they were serum-starved overnight. Serum-starved cells were counted (WST-1 seeding control) and alternatively incubated for 24 hours in serum-free medium supplemented with 1 mg/ml BSA, and 50 μM BrdU in the BrdU experiment, in the absence or presence of 50 ng/ml activated PDGF-CC or tPA protein (#116, American Diagnostica Inc.). Upon counting, WST-1 reagent was added and measured according to the manufacturer's protocol using an ELISA reader. […] Quantification of the BrdU-positive cells was performed by counting all cells along the vertical and horizontal diameters of all wells.

[2] = system: wild-type and tPA-deficient fibroblasts; assay: BrdU incorporation in primary fibroblasts; format: cell-based, mouse; details: 50 ng/ml, 24 hours BrdU labeling
Description: Cell nuclei were visualized with 4′,6-diamidine-2′-phenylindole dihydrochloride (DAPI), and BrdU-labeled cells were determined by immunofluorescence using antibodies to BrdU (FIG. 7B).
as §1, with “reader. In the BrdU experiment, the cells were fixed in 4% paraformaldehyde in PBS for 30 min at room temperature and the DNA was denatured in 2M HCl for 20 min at room temperature and then blocked in 0.5% BSA, 0.5% Tween, and 10% goat serum in PBS.” for “reader.”

T1 sequence (P16234 24-1089): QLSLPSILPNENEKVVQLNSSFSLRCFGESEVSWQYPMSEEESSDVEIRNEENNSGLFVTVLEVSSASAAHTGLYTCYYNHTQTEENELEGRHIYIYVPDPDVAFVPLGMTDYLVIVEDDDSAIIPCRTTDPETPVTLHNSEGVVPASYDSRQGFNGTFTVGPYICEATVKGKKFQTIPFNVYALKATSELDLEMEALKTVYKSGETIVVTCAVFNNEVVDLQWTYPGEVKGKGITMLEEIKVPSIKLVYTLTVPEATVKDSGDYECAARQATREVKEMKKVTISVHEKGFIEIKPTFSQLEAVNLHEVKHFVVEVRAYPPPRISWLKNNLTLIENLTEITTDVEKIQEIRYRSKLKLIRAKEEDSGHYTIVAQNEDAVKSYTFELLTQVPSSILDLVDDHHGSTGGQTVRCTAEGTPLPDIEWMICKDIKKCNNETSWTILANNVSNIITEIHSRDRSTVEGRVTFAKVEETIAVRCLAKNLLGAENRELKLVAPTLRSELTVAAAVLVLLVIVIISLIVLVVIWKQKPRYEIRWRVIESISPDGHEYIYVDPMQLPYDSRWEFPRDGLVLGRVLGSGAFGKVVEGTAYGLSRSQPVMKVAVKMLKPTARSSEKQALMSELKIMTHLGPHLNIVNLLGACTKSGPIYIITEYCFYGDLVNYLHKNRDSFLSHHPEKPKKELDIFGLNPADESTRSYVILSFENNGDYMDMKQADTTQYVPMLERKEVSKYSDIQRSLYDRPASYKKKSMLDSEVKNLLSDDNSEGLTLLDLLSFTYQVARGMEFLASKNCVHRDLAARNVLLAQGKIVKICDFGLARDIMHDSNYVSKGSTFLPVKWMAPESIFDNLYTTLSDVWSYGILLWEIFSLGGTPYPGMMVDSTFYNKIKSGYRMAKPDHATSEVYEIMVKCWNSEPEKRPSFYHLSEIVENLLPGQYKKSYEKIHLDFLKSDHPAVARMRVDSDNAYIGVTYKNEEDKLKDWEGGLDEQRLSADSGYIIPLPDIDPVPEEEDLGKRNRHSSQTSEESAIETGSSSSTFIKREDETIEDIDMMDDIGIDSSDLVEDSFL

- PDGFR-α activation (receptor tyrosine phosphorylation) (PDGFR-α): failed to induce receptor activation
Substance: tPA: tissue plasminogen activator, secreted serine protease; expressed, purified from human melanoma cells or recombinant
- rescue of growth of tPA-deficient fibroblasts [1]: allowed the cells to grow similar to the wild-type fibroblasts
- BrdU incorporation in tPA-deficient cells ([2]; serum-starved tPA-deficient fibroblasts): strongly stimulated BrdU incorporation in the tPA-deficient cells
- BrdU incorporation in wild-type cells ([2]; serum-starved wild-type fibroblasts): had less effect on wild-type cells
